Laboratory results from ChEMBL document CHEMBL3046630, “Isolation and antifungal and antioomycete activities of staurosporine from Streptomyces roseoflavus strain LS-A24” (J Agric Food Chem, 2006).
Active and inactive are the calls of the source. No cut-off for these calls is given here.

Tests used:
Phytophthora capsici [1] = test: Antioomycete activity against Phytophthora capsici zoospores suspension infected in pepper plants (cv. Hanbyul) at first branch stage pre-exposed to compound spray on stems before fungal infection assessed as reduction in Phyophthora blight disease severity at 1 to 1000 ug/mL under greenhouse conditions; type: functional, organism-based
Capsicum annuum = test: Phytotoxicity in Phytophthora capsici zoospores suspension infected Capsicum annuum cv. Hanbyul (pepper) at first branch stage pre-exposed to compound spray on stems before fungal infection at 500 ug/mL under greenhouse conditions; type: organism-based; conditions: in vivo, other
Phytophthora capsici [2] = test: Antioomycete activity against Phytophthora capsici zoospores suspension infected in pepper plants (cv. Hanbyul) at first branch stage pre-exposed to compound spray on stems before fungal infection assessed as reduction in Phyophthora blight disease severity at 500 ug/mL under greenhouse conditions; type: functional, organism-based
Phytophthora capsici [3] = test: Antioomycete activity against Phytophthora capsici zoospores suspension infected in pepper plants (cv. Hanbyul) at first branch stage pre-exposed to compound spray on stems before fungal infection assessed as reduction in Phyophthora blight disease severity at 100 ug/mL under greenhouse conditions; type: functional, organism-based

| Compound | Activity (Phytophthora capsici [1]) | Activity (Capsicum annuum) | Activity (Phytophthora capsici [2]) | Activity (Phytophthora capsici [3]) |
| --- | --- | --- | --- | --- |
| CN[C@@H]1C[C@H]2O[C@@](C)([C@@H]1OC)n1c3ccccc3c3c4c(c5c6ccccc6n2c5c31)C(=O)NC4 [STAUROSPORINE] | Dose-dependent effect | Non-toxic | Active | – |
| COCC(=O)N(c1c(C)cccc1C)C(C)C(=O)OC (stereo not given) | Dose-dependent effect | – | – | Active |
